In patent US9242996B2 (Novartis AG, priority 2013, dated 2016):

Columns and labels:
activated ERK2 [1] = biological target: T1, activated ERK2 (Homo sapiens (Human), UniProt P28482); experiment: Activated ERK2 (20 pM) Kinase Assay (AlphaScreen, ERKtide phosphorylation); assay type: biochemical; conditions: 0.02 nM ERK2, 400 nM ERKtide peptide, 35 μM ATP, 30 min preincubation
How it was run: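 AlphaScreen read-out (anti-phospho-EGFR Thr669 antibody, protein A acceptor/streptavidin donor beads) of ERKtide (400 nM) phosphorylation by 20 pM activated ERK2 at 35 μM ATP.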

activated ERK2 [2] = biological target: T1, activated ERK2; experiment: Activated ERK2 kinase assay, ERK2 New conditions (AlphaScreen, ERKtide phosphorylation); assay type: biochemical; conditions: 0.25 nM ERK2, 200 nM ERKtide peptide, 35 μM ATP, 30 min preincubation
How it was run: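 Read-out is AlphaScreen with anti-phospho-EGFR (Thr669) antibody after EDTA quench and overnight dark incubation. Reaction: 0.25 nM ERK2, 30 min compound preincubation, then 200 nM ERKtide plus 35 µM ATP for 2–3 h at ambient temperature, pH 7.5. IC50 by four-parameter fit.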

T1 sequence (P28482 whole entry): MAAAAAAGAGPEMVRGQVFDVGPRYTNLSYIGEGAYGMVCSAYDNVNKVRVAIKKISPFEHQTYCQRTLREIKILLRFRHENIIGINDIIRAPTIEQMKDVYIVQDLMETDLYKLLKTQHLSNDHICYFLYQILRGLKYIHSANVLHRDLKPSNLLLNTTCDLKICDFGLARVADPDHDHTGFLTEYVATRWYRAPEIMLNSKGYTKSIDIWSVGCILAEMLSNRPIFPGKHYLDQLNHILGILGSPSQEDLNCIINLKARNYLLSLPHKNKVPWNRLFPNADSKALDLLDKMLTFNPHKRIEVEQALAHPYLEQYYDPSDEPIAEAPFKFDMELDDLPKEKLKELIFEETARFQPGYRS

| SMILES | IC50 (activated ERK2 [1]) [nM] | IC50 (activated ERK2 [2]) [nM] |
| --- | --- | --- |
| C[C@@H](NC(=O)c1ccc(-c2cc(C3CCNC(=O)C3)cnc2N)cc1F)c1cccc(Cl)c1 (mixture of isomers) [Example 120, 4-(2-amino-5-(2-oxopiperidin-4-yl)pyridin-3-yl)-N-((R)-1-(3-chlorophenyl)ethyl)-2-fluorobenzamide] | 0.536 | 1.35 |
| Nc1ncc(C2CCNC(=O)C2)cc1-c1ccc(C(=O)N[C@H](CO)c2cccc(Cl)c2)c(F)c1 (mixture of isomers) [Example 121, 4-(2-amino-5-(2-oxopiperidin-4-yl)pyridin-3-yl)-N-((S)-1-(3-chlorophenyl)-2-hydroxyethyl)-2-fluorobenzamide] | 0.217 | 0.34 |
| CN1CC[C@@H](c2cnc(N)c(-c3ccc(C(=O)N[C@H](CO)c4cccc(Cl)c4)c(F)c3)c2)CC1=O [Example 27, 4-(2-amino-5-((R)-1-methyl-2-oxopiperidin-4-yl)pyridin-3-yl)-N—((S)-1-(3-chlorophenyl)-2-hydroxyethyl)-2-fluorobenzamide] | 1.87 | 4.1 |
| CN1CC[C@H](c2cnc(N)c(-c3ccc(C(=O)N[C@H](CO)c4cccc(Cl)c4)c(F)c3)c2)CC1=O [Example 28, 4-(2-amino-5-((S)-1-methyl-2-oxopiperidin-4-yl)pyridin-3-yl)-N—((S)-1-(3-chlorophenyl)-2-hydroxyethyl)-2-fluorobenzamide] | 1.2 | 2.55 |
| C[C@@H](NC(=O)c1ccc(-c2cc([C@@H]3CCN(C)C(=O)C3)cnc2N)cc1F)c1ccccc1 [Example 30, 4-(2-amino-5-((R)-1-methyl-2-oxopiperidin-4-yl)pyridin-3-yl)-2-fluoro-N—((R)-1-phenylethyl)benzamide] | 22.5 | 69.5 |
| C[C@@H](NC(=O)c1ccc(-c2cc([C@H]3CCN(C)C(=O)C3)cnc2N)cc1F)c1ccccc1 [Example 31, 4-(2-amino-5-((S)-1-methyl-2-oxopiperidin-4-yl)pyridin-3-yl)-2-fluoro-N—((R)-1-phenylethyl)benzamide] | 32 | 74 |
| C[C@@H](NC(=O)c1ccc(-c2cc([C@H]3CCC(=O)N(C)C3)cnc2N)cc1F)c1cccc(Cl)c1 [Example 39, 4-(2-amino-5-((R)-1-methyl-6-oxopiperidin-3-yl)pyridin-3-yl)-N—((R)-1-(3-chlorophenyl)ethyl)-2-fluorobenzamide] | 1.3 | 2.48 |
| C[C@@H](NC(=O)c1ccc(-c2cc([C@@H]3CCC(=O)N(C)C3)cnc2N)cc1F)c1cccc(Cl)c1 [Example 40, 4-(2-amino-5-((S)-1-methyl-6-oxopiperidin-3-yl)pyridin-3-yl)-N—((R)-1-(3-chlorophenyl)ethyl)-2-fluorobenzamide] | 1.26 | 2.46 |
| CCn1cc(-c2cnc(N)c(-c3ccc(C(=O)N[C@H](C)c4cc(F)cc(S(C)(=O)=O)c4)c(F)c3)c2)cn1 [Example 313, (R)-4-(2-amino-5-(1-ethyl-1H-pyrazol-4-yl)pyridin-3-yl)-2-fluoro-N-(1-(3-fluoro-5-(methylsulfonyl)phenyl)ethyl) benzamide] | – | 0.617 |
| CCn1cc(-c2cnc(N)c(-c3ccc(C(=O)N[C@H](CO)c4ccccc4)c(F)c3)c2)cn1 [Example 314, (S)-4-(2-amino-5-(1-ethyl-1H-pyrazol-4-yl)pyridin-3-yl)-2-fluoro-N-(2-hydroxy-1-phenylethyl) benzamide] | – | 1.48 |
| Nc1ncc(C2CNC(=O)C2)cc1-c1ccc(C(=O)NCc2ccccc2)c(F)c1 (stereo not drawn) [Example 316, 4-(2-amino-5-(5-oxopyrrolidin-3-yl)pyridin-3-yl)-N-benzyl-2-fluorobenzamide] | – | 330 |

Other lines, results leading:

| IC50 (activated ERK2 [1]) [nM] | IC50 (activated ERK2 [2]) [nM] | SMILES |
| --- | --- | --- |
| 197 | 206 | CS(=O)(=O)[C@H]1CC[C@@H](c2cnc(N)c(-c3ccc(C(=O)NCc4ccccc4)c(F)c3)n2)CC1 [Example 16, 4-(3-amino-6-((1s,4s)-4-(methylsulfonyl)cyclohexyl)pyrazin-2-yl)-N-benzyl-2-fluorobenzamide] |
| – | 1340 | Cc1ccnc(CNC(=O)c2ccc(-c3cc(C4CCOCC4)cnc3N)cc2F)n1 [Example 317, 4-(2-amino-5-(tetrahydro-2H-pyran-4-yl)pyridin-3-yl)-2-fluoro-N-((4-methylpyrimidin-2-yl)methyl) benzamde] |
| – | 151 | NC(=O)c1ccc(-c2nc(C3CCOCC3)cnc2N)cc1F [Example 319, 4-(3-amino-6-(tetrahydro-2H-pyran-4-yl)pyrazin-2-yl)-2-fluorobenzamide] |
| – | 354 | CNC(=O)c1ccc(-c2nc(C3CCOCC3)cnc2N)cc1F [Example 320, 4-(3-amino-6-(tetrahydro-2H-pyran-4-yl)pyrazin-2-yl)-2-fluoro-N-methylbenzamide] |
| – | 91.2 | Nc1ncc(C2CCOCC2)nc1-c1ccc(C(=O)N2CCOC[C@@H]2c2ccccc2)cc1 [Example 322, (S)-(4-(3-amino-6-(tetrahydro-2H-pyran-4-yl)pyrazin-2-yl)phenyl)(3-phenylmorpholino) methanone] |
| – | 3.29 | CS(=O)(=O)c1cccc(CNC(=O)c2ccc(-c3nc(C4CCOCC4)cnc3N)cc2)c1 [Example 323, 4-(3-amino-6-(tetrahydro-2H-pyran-4-yl)pyrazin-2-yl)-N-(3-(methylsulfonyl)benzyl)benzamide] |
| – | 0.253 | NC[C@@H](NC(=O)c1ccc(-c2nc(C3CCOCC3)cnc2N)cc1F)c1ccccc1 [Example 326, (S)-N-(2-amino-1-phenylethyl)-4-(3-amino-6-(tetrahydro-2H-pyran-4-yl)pyrazin-2-yl)-2-fluorobenzamide] |
| – | 54.2 | Nc1ncc(C2CCOCC2)nc1-c1ccc(C(=O)N[C@H](CF)c2ccccc2)cc1 [Example 327, (S)-4-(3-amino-6-(tetrahydro-2H-pyran-4-yl)pyrazin-2-yl)-N-(2-fluoro-1-phenylethyl) benzamide] |
| – | 204 | Nc1ncc(C2CCC3(CC2)OCCO3)nc1-c1ccc(C(=O)NCc2ccccc2)c(F)c1 [Example 413, 4-(3-amino-6-(1,4-dioxaspiro[4.5]decan-8-yl)pyrazin-2-yl)-N-benzyl-2-fluorobenzamide] |
| – | 1.68 | C[C@@H](NC(=O)c1ccc(-c2nc([C@H]3CC[C@H](O)CC3)cnc2N)cc1F)c1cccc(Cl)c1 [Example 415, 4-(3-amino-6-((1r,4R)-4-hydroxy-cyclohexyl)pyrazin-2-yl)-N-((R)-1-(3-chlorophenyl)ethyl)-2-fluorobenzamide] |
| – | 5.68 | C[C@@H](NC(=O)c1ccc(-c2nc([C@H]3CC[C@@H](O)CC3)cnc2N)cc1F)c1cccc(Cl)c1 [Example 416, 4-(3-amino-6-((1s,4S)-4-hydroxy-cyclohexyl)pyrazin-2-yl)-N-((R)-1-(3-chlorophenyl)ethyl)-2-fluorobenzamide] |
| – | 0.853 | C[C@@H](NC(=O)c1ccc(-c2nc([C@H]3CC[C@H](O)CC3)cnc2N)cc1F)c1cc(F)cc(S(C)(=O)=O)c1 [Example 419, 4-(3-amino-6-((1r,4R)-4-hydroxy-cyclohexyl)pyrazin-2-yl)-2-fluoro-N-((R)-1-(3-fluoro-5-(methylsulfonyl)phenyl)ethyl) benzamide] |
| – | 1.95 | C[C@@H](NC(=O)c1ccc(-c2nc([C@H]3CC[C@@H](O)CC3)cnc2N)cc1F)c1cc(F)cc(S(C)(=O)=O)c1 [Example 420, 4-(3-amino-6-((1s,4S)-4-hydroxy-cyclohexyl)pyrazin-2-yl)-2-fluoro-N-((R)-1-(3-fluoro-5-(methylsulfonyl)phenyl)ethyl) benzamide] |
